The values that follow come from article PMC4774972, “Activity and Predicted Nephrotoxicity of Synthetic Antibiotics Based on Polymyxin B” (Journal of Medicinal Chemistry, 2016).

SMILES strings stand for the structures. Converted amounts (≈) assume the structure as drawn. Bridge positions count the residues as written; N and C are the ends. Square brackets hold non-standard residues; d marks the D form. Peptide text beside a SMILES is read from it. * marks the point of attachment. Bip = N[C@@H](Cc1ccc(-c2ccccc2)cc1)C(=O)O; dBip = N[C@H](Cc1ccc(-c2ccccc2)cc1)C(=O)O; Gly(octyl) = CCCCCCCC[C@H](N)C(=O)O; Octanoyl = CCCCCCCC(=O)*; Dab = NCC[C@H](N)C(=O)O

Series [1] concerns A. baumannii CI Ptyela 100734512:2, PmxR. The following applies: MIC A. baumannii CI Ptyela 100734512:2, PmxR (µg/mL).
For series [2], the system named is K. pneumoniae CI 138-16357-20362, PmxR. The following applies: MIC K. pneumoniae CI 138-16357-20362, PmxR (µg/mL).
The subject of series [3] is K. pneumoniae CI Koprana 100650661:1, PmxR. The following applies: MIC K. pneumoniae CI Koprana 100650661:1, PmxR (µg/mL).
Series [4] has as its system P. aeruginosa PA9704, PmxR. The following applies: MIC P. aeruginosa PA9704, PmxR (µg/mL).
The test system of series [5] is S. aureus ATCC 25923, MSSA. The following applies: MIC S. aureus ATCC 25923, MSSA (µg/mL).
The subject of series [6] is K. pneumoniae CI 138-16357-20362, PmxR. The series is described as follows: microbe, parasite or virus in culture. The following applies: carbapenem & polymyxin resistant clinical isolate; MHB, 5 × 10^5 CFU/mL, 18 h at 37 °C. In kind it is cell-based, Klebsiella pneumoniae. As to the method:
(§1) Bacteria were either obtained from American Type Culture Collection (ATCC; Manassas, VA, USA) or independent academic clinical isolate collections, as listed in Table S2. Bacteria were cultured in nutrient broth (NB; Bacto Laboratories, catalog no. 234000) or Muller Hinton broth (MHB; Bacto Laboratories, catalog no. 211443) at 37 °C overnight with shaking (∼180 rpm). A sample of each culture was then diluted 50-fold in fresh MHB and incubated at 37 °C for 1.5–3 h with shaking (∼180 rpm). Compound stock solutions were prepared as 0.64 or 2.56 mg/mL in water. The compounds, at twice the final desired concentration, were serially diluted 2-fold across the wells of 96-well plates (Polystyrene, Corning, catalogue No. 3370). Mid log phase bacterial cultures (after 1.5–3 h incubation) were diluted to a final concentration of 5 × 10^5 colony forming units (CFU)/mL, and 50 μL was added to each well giving a final compound concentration range of 32 μg/mL to 0.015 μg/mL (128–0.06 μg/mL for colistin and polymyxin B against the polymyxin resistant clinical isolates). MICs were determined visually after 18 h of incubation at 37 °C, with the MIC defined as the lowest compound concentration at which no bacterial growth was visible.
(§2) Table S2. Bacterial strains used for Minimum Inhibitory Concentration (MIC) […]
(§3) Organism Strain Strain description Strain Source
(§4) Escherichia coli ATCC 25922 FDA strain Seattle 1946 ATCC
(§5) Klebsiella pneumoniae ATCC 13883 Control strain ATCC
(§6) Klebsiella pneumoniae ATCC 700603 Multi-drug resistant ATCC
(§7) Klebsiella pneumoniae BAA-2146 Metallo-beta-lactamase- ATCC
(§8) Acinetobacter baumannii ATCC 19606 Type strain ATCC
(§9) Pseudomonas aeruginosa ATCC 27853 Type strain ATCC
(§10) Pseudomonas aeruginosa FADDI-PA070 Clinical isolate, Nation and Li labs, polymyxin resistant Monash University
(§11) Clinical isolate, Wang Hengzhuang, Pseudomonas aeruginosa PA9704 polymyxin resistant University Hospital of […]
(§12) Ptyela Clinical isolate, Ilias Karaiskos and Acinetobacter baumannii Carbapenem & Helen Giamarellou
(§13) Clinical isolate, Medicine, Hygeia
(§14) Klebsiella pneumoniae Koprana Carbapenem, & General Hospital, […]
(§15) Clinical isolate, (Instituto Dante […]
(§16) polymyxin resistant Cardiologia, São […]

Series [7] has as its system K. pneumoniae CI Koprana 100650661:1, PmxR. The series is described as follows: microbe, parasite or virus in culture. The note with it: carbapenem & polymyxin resistant clinical isolate; MHB, 5 × 10^5 CFU/mL, 18 h at 37 °C. The class given is cell-based, Klebsiella pneumoniae. How it is done: as §1, §2, §3, §4, §5, §6, §7, §8, §9, §10, §11, §12, §13, §14, §15, §16

The test system of a further series is HepG2. The note with it: CC50 HepG2 (µM).
The subject of series [8] is P. aeruginosa FADDI-PA070, PmxR. The following applies: MIC P. aeruginosa FADDI-PA070, PmxR (µg/mL).

Usually MIC stands for the lowest concentration that inhibits growth of the organism. A low value points to a more susceptible organism. Consider `CCCCCCCC(=O)N[C@@H](CCN)C(=O)N[C@H](C(=O)N[C@@H](CCN)C(=O)N[C@H]1CCNC(=O)[C@H]([C@@H](C)O)NC(=O)[C@H](CCN)NC(=O)[C@H](Cc2ccc(N)cc2)NC(=O)[C@H](CC(C)C)NC(=O)[C@@H](Cc2ccccc2)NC(=O)[C@H](CCN)NC1=O)[C@@H](C)O` [Compound 25], for which the minimal inhibitory concentration (MIC) in series [1], in series [2], in series [3], in [4] and in [5] was greater than 32 µg/mL in each case. In addition, in series [6], the “MIC K. pneumoniae CI 138-16357-20362, PmxR” value is greater than 32 µg/mL. The “MIC K. pneumoniae CI Koprana 100650661:1, PmxR” value in series [7] is greater than 32 µg/mL.
In series [2], `CCCCCCCC(=O)N[C@@H](CCN)C(=O)N[C@H](C(=O)N[C@@H](CCN)C(=O)N[C@H]1CCNC(=O)[C@H]([C@@H](C)O)NC(=O)[C@H](CCN)NC(=O)[C@H](CCN)NC(=O)[C@H](Cc2ccc(-c3ccccc3)cc2)NC(=O)[C@@H](Cc2ccccc2)NC(=O)[C@H](CCN)NC1=O)[C@@H](C)O` (Octanoyl-[Dab]T[Dab][Dab][Dab][dF][Bip][Dab][Dab]T; lactam 4-C) had an MIC greater than 32 µg/mL. In the series on HepG2, this molecule registered a CC50 of 117 µM.
Consider `CCCCCCCC[C@@H]1NC(=O)[C@@H](Cc2ccccc2)NC(=O)[C@H](CCN)NC(=O)[C@@H](NC(=O)[C@H](CCN)NC(=O)[C@@H](NC(=O)[C@H](CCN)NC(=O)CCCCCCC)[C@@H](C)O)CCNC(=O)[C@H]([C@@H](C)O)NC(=O)[C@H](CCN)NC(=O)[C@H](CCN)NC1=O` (Octanoyl-[Dab]T[Dab][Dab][Dab][dF][Gly(octyl)][Dab][Dab]T; lactam 4-C), for which the MIC in [1] amounted to 8 µg/mL (≈ 6.42 µM); in [2] it was 32 µg/mL (≈ 25.7 µM); in [3], 32 µg/mL (≈ 25.7 µM); in [8], 16 µg/mL (≈ 12.8 µM); in series [4] it was 8 µg/mL (≈ 6.42 µM); in [5], 8 µg/mL (≈ 6.42 µM). In the series on HepG2, this molecule displayed a CC50 of 116 µM.
In the case of `CCCCCCCC(=O)N[C@H](C(=O)N[C@@H](CCN)C(=O)N[C@H]1CCNC(=O)[C@H]([C@@H](C)O)NC(=O)[C@H](CCN)NC(=O)[C@H](CCN)NC(=O)[C@H](CC(C)C)NC(=O)[C@@H](Cc2ccccc2)NC(=O)[C@H](CCN)NC1=O)[C@@H](C)O` [Compound 12] (Octanoyl-T[Dab][Dab][Dab][dF]L[Dab][Dab]T; lactam 3-C), the MIC in series [1], in series [2], in series [3], in [8], in series [4] and in series [5] was greater than 32 µg/mL throughout. In addition, the CC50 in the series with HepG2 is greater than 300 µM. Moreover, in [6], the “MIC K. pneumoniae CI 138-16357-20362, PmxR” value was greater than 32 µg/mL. For the same molecule, in [7], the “MIC K. pneumoniae CI Koprana 100650661:1, PmxR” value is greater than 32 µg/mL.
Turning to `CCCCCCCC(=O)N[C@@H](CCN)C(=O)N[C@H](C(=O)N[C@@H](CCN)C(=O)N[C@H]1CCNC(=O)[C@H]([C@@H](C)O)NC(=O)[C@H](CCNC(=O)[C@@H](N)CCCNC(=N)N)NC(=O)[C@H](CCN)NC(=O)[C@H](CC(C)C)NC(=O)[C@@H](Cc2ccccc2)NC(=O)[C@H](CCN)NC1=O)[C@@H](C)O` [Compound 18] (Octanoyl-[Dab]T[Dab][Dab][Dab][dF]L[Dab][Dab](Arg)T; lactam 4-C), the MIC in series [1], in series [2], in [3], in [8], in series [4] and in series [5] was greater than 32 µg/mL throughout. In the series on HepG2, this molecule yielded a CC50 greater than 300 µM. The “MIC K. pneumoniae CI 138-16357-20362, PmxR” value in series [6] was greater than 32 µg/mL. Moreover, in series [7], the “MIC K. pneumoniae CI Koprana 100650661:1, PmxR” value was greater than 32 µg/mL.
`CCCCCCCC(=O)N[C@@H](CCN)C(=O)N[C@H](C(=O)N[C@@H](CCN)C(=O)N[C@H]1CCNC(=O)[C@H]([C@@H](C)O)NC(=O)[C@H](CCN)NC(=O)[C@H](CCN)NC(=O)[C@H](CC(C)C)NC(=O)[C@@H](Cc2ccc(-c3ccccc3)cc2)NC(=O)[C@H](CCN)NC1=O)[C@@H](C)O` (Octanoyl-[Dab]T[Dab][Dab][Dab][dBip]L[Dab][Dab]T; lactam 4-C) registered a CC50 in the series on HepG2 of 119 µM.
As for `CCCCCCCC(=O)N[C@@H](CCN)C(=O)N[C@H](C(=O)N[C@@H](CCN)C(=O)N[C@H]1CCNC(=O)[C@H]([C@@H](C)O)NC(=O)[C@H](CCNC(=O)[C@@H](N)CCC(=O)O)NC(=O)[C@H](CCN)NC(=O)[C@H](CC(C)C)NC(=O)[C@@H](Cc2ccccc2)NC(=O)[C@H](CCN)NC1=O)[C@@H](C)O` [Compound 19] (Octanoyl-[Dab]T[Dab][Dab][Dab][dF]L[Dab][Dab](Glu)T; lactam 4-C), the MIC in series [1], in [2], in [3], in series [8], in [4] and in series [5] was greater than 32 µg/mL throughout. The molecule also returned a CC50 with HepG2 greater than 300 µM. The “MIC K. pneumoniae CI 138-16357-20362, PmxR” value in series [6] was greater than 32 µg/mL. The “MIC K. pneumoniae CI Koprana 100650661:1, PmxR” value in series [7] is greater than 32 µg/mL.
On to `CCCCCCCC(=O)N[C@@H](CCN)C(=O)N[C@H](C(=O)N[C@@H](CCN)C(=O)N[C@H]1CCNC(=O)[C@H]([C@@H](C)O)NC(=O)[C@H](CCN)NC(=O)[C@H](CCNC(=O)[C@@H](N)CCCNC(=N)N)NC(=O)[C@H](CC(C)C)NC(=O)[C@@H](Cc2ccccc2)NC(=O)[C@H](CCN)NC1=O)[C@@H](C)O` [Compound 22], for which the MIC in series [1], in [2], in [3], in [8], in series [4] and in [5] was greater than 32 µg/mL in each case. Moreover, the “MIC K. pneumoniae CI 138-16357-20362, PmxR” value in series [6] was greater than 32 µg/mL. For the same molecule, the “MIC K. pneumoniae CI Koprana 100650661:1, PmxR” value in [7] is greater than 32 µg/mL.
As to `CCCCCCCC(=O)N[C@@H](CCN)C(=O)N[C@H](C(=O)N[C@@H](CCN)C(=O)N[C@H]1CCNC(=O)[C@H]([C@@H](C)O)NC(=O)[C@H](CCN)NC(=O)[C@H](CCN)NC(=O)[C@H](CC(C)C)NC(=O)[C@@H](Cc2ccccc2)NC(=O)[C@H](CCNC(=O)[C@@H](N)CCCNC(=N)N)NC1=O)[C@@H](C)O` [Compound 31] (Octanoyl-[Dab]T[Dab][Dab][Dab](Arg)[dF]L[Dab][Dab]T; lactam 4-C), the MIC in [1], in series [2], in series [3], in [8], in [4] and in series [5] was greater than 32 µg/mL throughout. The molecule also returned a CC50 in the series with HepG2 greater than 300 µM. Moreover, the “MIC K. pneumoniae CI 138-16357-20362, PmxR” value in series [6] was greater than 32 µg/mL. Moreover, the “MIC K. pneumoniae CI Koprana 100650661:1, PmxR” value in series [7] is greater than 32 µg/mL.
Turning to `CCCCCCCC(=O)N[C@@H](CCN)C(=O)N[C@H](C(=O)N[C@@H](CCN)C(=O)N[C@H]1CCNC(=O)[C@H]([C@@H](C)O)NC(=O)[C@H](CCN)NC(=O)[C@H](CCCNC(=N)N)NC(=O)[C@H](CC(C)C)NC(=O)[C@@H](Cc2ccccc2)NC(=O)[C@H](CCN)NC1=O)[C@@H](C)O` [Compound 26], the MIC in [2], in series [3], in [4] and in [5] was greater than 32 µg/mL throughout. Further, in series [6], the “MIC K. pneumoniae CI 138-16357-20362, PmxR” value was greater than 32 µg/mL. The “MIC K. pneumoniae CI Koprana 100650661:1, PmxR” value in series [7] was greater than 32 µg/mL.
